Reference: ChEMBL document CHEMBL4765246, “Design, synthesis and biological evaluation of quinoxaline compounds as anti-HIV agents targeting reverse transcriptase enzyme” (Eur J Med Chem, 2020)

Assays:
[1] = system: Human immunodeficiency virus type 1 BH10; test: (§1) Inhibition of wild type recombinant HIV-1 subtype B BH10 p66/p51 reverse transcriptase heterodimer expressed in Escherichia coli BL21 (DE3) assessed as inhibition of dTTP incorporation on poly(rA)-oligo(dT) template primer duplex at 10 uM preincubated with enzyme for 2 mins followed by incubation with poly(A)-oligo(dT) templates for 2 hrs by flourescence assay method; details: time 122.0 min
[2] = system: Human immunodeficiency virus type 1 BH10; test: as §1, with “at 100” for “at 10”; details: time 122.0 min
[3] = system: Human immunodeficiency virus type 1 BH10; test: as §1, with “of” for “of wild type”, “heterodimer K103N mutant” for “heterodimer expressed in Escherichia coli BL21 (DE3)”, “at 50” for “at 10”; details: time 122.0 min
[4] = as §1, with “duplex” for “duplex at 10 uM”; parameters: species or system Human immunodeficiency virus type 1 BH10
[5] = system: Human immunodeficiency virus type 1 BH10; test: Selectivity for inhibition of wild type recombinant HIV-1 subtype B BH10 p66/p51 reverse transcriptase heterodimer expressed in Escherichia coli BL21 (DE3) at 50 uM over inhibition of recombinant HIV-1 subtype B BH10 p66/p51 reverse transcriptase heterodimer K103N mutant at 50 uM by fluorescence based assay
[6] = Anti-HIV-1 activity against HTLV-3B infected in human MT2 cells assessed as reduction in syncytium formation by measuring reduction in p24 antigen production measured after 4 days by ELISA method; format: functional, cell-based; details: Human immunodeficiency virus 1, HTLV-3B, MT2, 96 h
[7] = Cytotoxicity against human MT2 cells assessed as reduction in cell viability measured after 4 days by Trypan blue assay; format: cell-based; details: time 4 day
[8] = Selectivity index, ratio of CC50 for human MT2 cells to EC50 for anti-HIV-1 activity against HTLV-3B infected in human MT2 cells; format: toxicity, cell-based; details: read-out: Ratio CC50/EC50

Structure (SMILES)	inhibition [1] [%]	inhibition [2] [%]	inhibition [3] [%]	IC50 [4] [µM]	Selectivity ratio [5]	EC50 [6] [µM]	CC50 at 96 h [7] [µM]	selectivity ratio [8]
O=C1CN(C(=O)CCCl)c2ccccc2N1	12	26	–	–	–	–	–	–
CC(C)COC(=O)N1c2ccccc2NC(=O)[C@@H]1C	37	64	13	64	5	1.58	117	74
CC(C)COC(=O)N1c2ccccc2NC(=O)[C@@H]1CC(C)C	22	51	20	67	3	–	–	–
CC(C)c1nc2ccccc2[nH]c1=O	12	17	–	–	–	–	–	–
COC(=O)CCc1nc2ccccc2nc1O	8	23	–	–	–	–	–	–
CCOC(=O)CCc1nc2ccccc2nc1O	15	12	–	–	–	–	–	–
CC(C)OC(=O)CCc1nc2ccccc2nc1O	21	25	–	–	–	–	–	–
O=C(O)CCc1nc2ccccc2[nH]c1=O	20	15	–	–	–	–	–	–
CCC(=O)N1c2ccccc2NC(=O)[C@@H]1C	7	23	–	–	–	–	–	–
CC(C)Cc1nc2ccccc2[nH]c1=O	15	73	5	23	16	> 10	134	–
CC(=O)N1CC(=O)Nc2ccccc21	7	56	–	–	–	–	–	–
Oc1nc2ccccc2nc1Cc1ccccc1	10	26	–	–	–	–	–	–
Cc1ccnc2c1NC(=O)c1cccnc1N2C1CC1 [NEVIRAPINE]	91	98	50	0.13	2	0.0067	96.2	14400
CC(C)[C@H]1C(=O)Nc2ccccc2N1C(=O)CCCl	7	7	–	–	–	–	–	–
CCC(=O)N1CC(=O)Nc2ccccc21	91	99	47	0.63	2	0.0031	98.6	31800
C[C@H]1CNc2ccccc2N1C(=O)CCl	8	8	–	–	–	–	–	–
Oc1nc2ccccc2nc1O	8	1	–	–	–	–	–	–
O=C1CN(S(=O)(=O)c2ccccc2)c2ccccc2N1	14	12	–	–	–	–	–	–
O=C1CN(C(=O)CCl)c2ccccc2N1	24	32	–	–	–	–	–	–
CC(C)COC(=O)N1CC(=O)Nc2ccccc21	20	46	–	–	–	> 10	262	–
CC(C)C[C@H]1C(=O)Nc2ccccc2N1C(=O)CCCl	10	20	–	–	–	–	–	–
CC(C)OC(=O)N1CC(=O)Nc2ccccc21	20	19	–	–	–	–	–	–
Cc1nc2ccccc2nc1O	3	1	–	–	–	–	–	–
CC(C)[C@H]1C(=O)Nc2ccccc2N1C(=O)CCl	5	12	–	–	–	–	–	–
O=C1CN(C(=O)c2ccccc2)c2ccccc2N1	14	33	–	–	–	–	–	–
C[C@H]1C(=O)Nc2ccccc2N1C(=O)CCCl	15	28	–	–	–	–	–	–
